Test results published in patent US20190216089A1, “COMPOUNDED HERBICIDAL COMPOSITION CONTAINING SHUANGZUOCAOTONG AND METHOD OF USING THE SAME” (priority 2016, published 2019).

Key:
[1] = tested on: Capsella bursa-pastoris; experiment: Pot-culture greenhouse foliage treatment, fresh weight inhibition (Gowing method); type: in vivo; details: foliage spray
Procedure: (§1) The above weeds were cultivated by a pot culture method. […] Full and uniform weed seeds were selected, soaked in warm water at 25° C. for 6 hours, and germinated in a 28° C. biochemical incubator (darkness). […] A certain amount of water was added to the enamel pan regularly to keep the soil moist.
(§2) Since these several agents were soluble in acetone, any two TCs were dissolved in acetone, and diluted with an aqueous solution containing 0.1% emulsifier T-80. The dilution was performed as required.
(§3) A ratio of glufosinate ammonium or glyphosate and shuangzuocaotong and amounts thereof in each group depends on the characteristics and toxicity of the two agents, as well as the main application purpose of a corresponding formulation. Glyphosate is a non-selective herbicide and is absorbed by foliage and translocated to various parts of the plant, which is different from the mechanism of action of glufosinate ammonium, i.e., killing roots. […] The control spectrum of Shuangzuocaotong is complementary to that of glyphosate or that of glufosinate ammonium to some extent. […] Based on the pre-tests in this study, the doses of glyphosate, glufosinate ammonium, and Shuangzuocaotong applied alone and in combination were shown in the Table 1 and Table 2, and a total 15 groups were designed, respectively. Water containing the solvent and emulsifying agent same with the above groups but free of the agents was used as a blank control.
(§4) 3 pots with 20 weed seeds per pot were treated in one treatment with […] per treatment, that is, a total of 60 weeds were treated in one treatment.
(§5) The agents were used for only once in the experiment. In the stage of weeds with 2 leaves and 1 core, the weeds were thinned out to maintain 15 weeds per pot and 45 weeds for each treatment, then continued to be cultured until the four true leaves of Descurainia sophia and Capsella bursa-pastoris emerged, and treated.
(§6) The well-cultured weeds were evenly placed on a platform with an area of 0.5 m^2, and a solution of agents was sprayed on the foliage thereof by the 3WP-2000-type walking spray tower at a dosage of 30 kg/ha and at a spray pressure of 0.3 MPa. After all the solution was sprayed, the valve was closed. After 30 seconds, the door of the spray tower was opened, and the nutritional bowl was taken out. Then the valve was opened, and the spray tube was cleaned by spraying 50 ml of water.
(§7) A pot-culture method was employed. For the cultivation of weeds, please refer to the Section 1.1, and “Pesticide guidelines for laboratory bioactivity tests—herbicides”. As to a method for applying agents, please refer to the section 2.3.2, that is, a method for foliage treatment was employed.
(§8) A method for investigating absolute number was employed, wherein whole seedlings of survival weeds were cut off with a blade along the soil surface, and the fresh weight of the weeds was weighed with an analytical balance. For dead weeds, the fresh weight thereof was zero.
(§9) The investigation was performed after 20 days of the treatment for only once.

[2] = tested on: Descurainia Sophia; experiment: as above; type: in vivo; details: foliage spray
Procedure: as §1, §2, §3, §4, §5, §6, §7, §8, §9

[3] = dose 67.5 g/hm^2, after 20 days (Table 2)
[4] = dose 90 g/hm^2, after 20 days (Table 2)
[5] = dose 112.5 g/hm^2, after 20 days (Table 2)
[6] = dose 1125 g/hm^2, after 20 days

## Cc1nn(C)cc1C(=O)Oc1c(C(=O)c2ccc(C(F)(F)F)cc2S(C)(=O)=O)c(C)nn1C [Shuangzuocaotong]
[1]; dose 15 g/hm^2, after 20 days
  actual fresh weight inhibition rate: 53.2%
[1]; dose 30 g/hm^2, after 20 days
  actual fresh weight inhibition rate: 75.2%
[1]; dose 45 g/hm^2, after 20 days
  actual fresh weight inhibition rate: 91.3%
[1]; [3]
  actual fresh weight inhibition rate: 54.1%
[1]; [4]
  actual fresh weight inhibition rate: 72.4%
[1]; [5]
  actual fresh weight inhibition rate: 93.5%
[2]; dose 15 g/hm^2, after 20 days
  actual fresh weight inhibition rate: 54.2%
[2]; dose 30 g/hm^2, after 20 days
  actual fresh weight inhibition rate: 76.2%
[2]; dose 45 g/hm^2, after 20 days
  actual fresh weight inhibition rate: 90.2%
[2]; [3]
  actual fresh weight inhibition rate: 53.3%
[2]; [4]
  actual fresh weight inhibition rate: 74.3%
[2]; [5]
  actual fresh weight inhibition rate: 86.2%

## CP(=O)(O)CCC(N)C(=O)O.N (racemic) [Glufosinate ammonium, ammonium-DL-homoalanin-4-yl(methyl)phosphinate]
[1]; dose 300 g/hm^2, after 20 days
  actual fresh weight inhibition rate: 48.2%
[1]; dose 450 g/hm^2, after 20 days
  actual fresh weight inhibition rate: 73.2%
[1]; dose 600 g/hm^2, after 20 days
  actual fresh weight inhibition rate: 93.5%
[2]; dose 300 g/hm^2, after 20 days
  actual fresh weight inhibition rate: 49.8%
[2]; dose 450 g/hm^2, after 20 days
  actual fresh weight inhibition rate: 71.6%
[2]; dose 600 g/hm^2, after 20 days
  actual fresh weight inhibition rate: 92.6%

## O=C(O)CNCP(=O)(O)O [glyphosate, N-(phosphonomethyl)glycine]
[1]; dose 675 g/hm^2, after 20 days
  actual fresh weight inhibition rate: 53.2%
[1]; dose 900 g/hm^2, after 20 days
  actual fresh weight inhibition rate: 74.6%
[1]; [6]
  actual fresh weight inhibition rate: 92.4%
[2]; dose 675 g/hm^2, after 20 days
  actual fresh weight inhibition rate: 55.2%
[2]; dose 900 g/hm^2, after 20 days
  actual fresh weight inhibition rate: 73.1%
[2]; [6]
  actual fresh weight inhibition rate: 91.4%
